In US9981954B2, “2-(pyrazin-2-ylcarbonylaminomethyl) benzimidazolium compounds as epithelial sodium channel inhibitors” (Boehringer Ingelheim International GmbH, priority 2015, dated 2018):

Experiments:
[1] = Permeability in CALU-3 cells; type: in vitro ADME; details: human, CALU-3 monolayers, pH 7.4, 37° C., 10 μM compound
Protocol: Permeability in CALU-3 Cells:
Permeability measurements across polarized, confluent CALU-3 cell monolayers grown on permeable filter supports are used to provide information on the potential of a compound to pass the lung epithelium.
CALU-3 cells (1-2×10^5 cells/l cm^2 area) are seeded on filter inserts (Costar transwell polycarbonate filters, 0.4 μm pore size) and cultured (for 10-12 days DMEM) until tight monolayers are formed. Compounds of interest are dissolved in appropriate solvent (DMSO, 10 mM stock solution). […] The transport solution (TL) is applied to the apical or basolateral donor side for measuring A-B or B-A permeability (3 filter replicates), respectively. The receiver side contains the same buffer as the donor side. After 30 min of accommodation, samples are collected at the start t0=0 min and at the end of the experiment tn=90 min from the donor and at 0, 30, 60, and 90 min also from the receiver chamber. Volume removed is […] by HTP-4 buffer. The compound concentration in the samples is measured by HPLC-MS/MS or scintillation counting. The permeability coefficient (Papp) and efflux ratio are calculated according to: Papp [cm/s]=(concentration receiver [nM]*volume receiver [mL]/time interval [sec])*(1/filter area)*(1/donor concentration [nM]).

[2] = molecular target: T1, ENaC (Epithelial Sodium Channel), Mouse kidney M-1 cells (Mus musculus, UniProt Q61180+Q9WU38+Q9WU39); experiment: Ussing Chamber assay: inhibition of amiloride sensitive short circuit current in M-1 cells; type: cell-based; details: apical application, 37° C.
T1 construct: Mouse kidney M-1 cells were cultivated in DMEM containing 5% FCS and 5 μM dexamethasone; endogenous in cells; host or cells: Mouse kidney M-1 cells (polarised on transwell filters, dexamethasone-treated)
T1 sequence (Q61180 1-699): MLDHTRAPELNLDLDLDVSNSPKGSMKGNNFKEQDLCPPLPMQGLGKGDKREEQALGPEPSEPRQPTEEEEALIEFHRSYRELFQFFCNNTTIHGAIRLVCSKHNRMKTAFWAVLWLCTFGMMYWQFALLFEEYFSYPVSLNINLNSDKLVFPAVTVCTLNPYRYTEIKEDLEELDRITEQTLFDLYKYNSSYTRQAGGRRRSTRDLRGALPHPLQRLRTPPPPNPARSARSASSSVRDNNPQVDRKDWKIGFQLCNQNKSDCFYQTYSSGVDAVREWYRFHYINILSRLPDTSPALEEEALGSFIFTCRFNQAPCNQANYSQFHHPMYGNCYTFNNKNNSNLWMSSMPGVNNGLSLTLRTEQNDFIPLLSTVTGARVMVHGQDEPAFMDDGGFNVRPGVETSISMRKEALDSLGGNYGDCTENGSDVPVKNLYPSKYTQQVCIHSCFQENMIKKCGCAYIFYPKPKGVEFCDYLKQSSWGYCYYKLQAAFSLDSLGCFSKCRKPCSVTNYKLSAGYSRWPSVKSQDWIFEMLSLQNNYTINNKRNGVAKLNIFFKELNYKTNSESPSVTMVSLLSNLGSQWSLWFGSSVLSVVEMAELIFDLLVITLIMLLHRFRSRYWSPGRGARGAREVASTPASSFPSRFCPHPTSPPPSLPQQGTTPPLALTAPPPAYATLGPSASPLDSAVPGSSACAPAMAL
T1 sequence (Q9WU38 1-638): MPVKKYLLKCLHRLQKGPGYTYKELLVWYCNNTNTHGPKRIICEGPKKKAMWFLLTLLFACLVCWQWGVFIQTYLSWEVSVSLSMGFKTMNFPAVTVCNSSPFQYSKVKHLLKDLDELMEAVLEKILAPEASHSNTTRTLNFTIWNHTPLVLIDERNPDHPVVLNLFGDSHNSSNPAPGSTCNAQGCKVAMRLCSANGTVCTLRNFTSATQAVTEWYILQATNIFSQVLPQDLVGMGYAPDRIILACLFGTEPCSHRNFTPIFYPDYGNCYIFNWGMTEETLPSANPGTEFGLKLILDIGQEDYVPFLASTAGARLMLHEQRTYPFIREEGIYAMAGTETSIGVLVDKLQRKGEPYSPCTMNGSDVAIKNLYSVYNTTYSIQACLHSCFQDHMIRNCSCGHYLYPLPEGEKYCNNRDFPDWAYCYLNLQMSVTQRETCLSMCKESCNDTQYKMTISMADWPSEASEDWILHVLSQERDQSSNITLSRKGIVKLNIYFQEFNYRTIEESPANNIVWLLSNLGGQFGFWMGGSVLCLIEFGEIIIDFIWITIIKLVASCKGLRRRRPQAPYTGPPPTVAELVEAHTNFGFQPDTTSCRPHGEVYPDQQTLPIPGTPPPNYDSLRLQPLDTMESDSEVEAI
T1 sequence (Q9WU39 1-655): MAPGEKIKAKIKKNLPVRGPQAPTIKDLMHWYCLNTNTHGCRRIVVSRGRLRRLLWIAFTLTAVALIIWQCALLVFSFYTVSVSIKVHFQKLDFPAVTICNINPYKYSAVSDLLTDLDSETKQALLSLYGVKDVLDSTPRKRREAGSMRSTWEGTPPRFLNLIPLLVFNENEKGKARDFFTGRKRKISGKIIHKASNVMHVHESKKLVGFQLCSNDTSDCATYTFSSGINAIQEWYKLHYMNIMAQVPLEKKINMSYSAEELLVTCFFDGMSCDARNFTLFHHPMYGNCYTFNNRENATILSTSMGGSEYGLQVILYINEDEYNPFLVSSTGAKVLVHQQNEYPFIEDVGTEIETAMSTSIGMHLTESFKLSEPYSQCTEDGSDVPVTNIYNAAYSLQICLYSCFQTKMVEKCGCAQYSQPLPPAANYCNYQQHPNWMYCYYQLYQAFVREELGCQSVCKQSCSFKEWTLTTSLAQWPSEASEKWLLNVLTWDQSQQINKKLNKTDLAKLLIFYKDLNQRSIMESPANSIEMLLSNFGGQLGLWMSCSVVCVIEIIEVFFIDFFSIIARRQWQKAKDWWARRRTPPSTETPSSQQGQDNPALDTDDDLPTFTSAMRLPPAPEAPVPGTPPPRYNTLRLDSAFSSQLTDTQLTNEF
Protocol: Ussing Chamber: Mouse kidney M-1 cells were cultivated in DMEM containing 5% FCS and 5 μM dexamethasone for 10 to 12 days on polyester transwell filters. Filters were inserted into a teflon-coated well-plate which fit into the ussing chamber system. Prior to measurement the medium of M-1 cells was replaced with Caco-2 transport buffer (Invitrogen, Germany). During measurements, the Ussing chamber temperature was kept at 37° C. Short circuit currents (I_sc) were measured in the voltage-clamp mode with the software package Lab View for data acquisition and analysis. The transepithelial electrical resistance (TEER) was determined by the application of voltage steps of ±5 mV every 5 sec. Compounds were administered at a final concentration of 3 μM or at increasing concentrations (1-3-10 μM) to the apical solution. At the end of each experiment the amiloride sensitive I_SC was measured by adding 3 μM amiloride to the apical compartment. Results are expressed as inhibition in percent of the amiloride effect or as IC50.

Papp A→B at 90 min, 10 μM ([1]; apical-to-basal): 0.3 ×10⁻⁶ cm/s
Papp B→A at 90 min, 10 μM ([1]; basal-to-apical): 0.2 ×10⁻⁶ cm/s
IC50 [2]: 13 nM
SMILES: CCn1c(CNC(=O)c2nc(Cl)c(N)nc2N)[n+](CC(=O)c2ccc(OC)c(OC)c2)c2ccc(OC)cc21.O=C([O-])C(F)(F)F [Example 8.01]
